Source: PMC6127852 (Journal of Enzyme Inhibition and Medicinal Chemistry, 2018)

Assays:
[1] = test system: polyA-polyU; experiment: Thermal melting (ΔTm) of polyA-polyU; type: binding; settings: for ΔTm, polyA-polyU, r = 0.1: PBS, pH 7
Description: (§1) T m experiments were conducted with a Perkin Elmer Lambda 25 spectrophotometer in 1 cm quartz cuvettes. The absorbance of the DNA/RNA-compound complex was monitored at 260 nm as a function of temperature. The absorbance of the ligands was subtracted from every curve, and the absorbance scale was normalised. The ΔT m values were calculated by subtracting T m of the free nucleic acid from T m of the complex. Every reported ΔT m value was the average of at least two measurements. The error of ΔT m is ±0.5 °C. All data were graphed and analysed using Origin software version 9.0.
(§2) Denaturation experiments were carried out at different amounts of the compounds (r = 0.1, 0.3, 0.5, and 0.7 eq; r = [compound]/[polynucleotide]) with ctDNA and polyA-polyU.

[2] = test system: S. aureus MSSA; experiment: Broth microdilution MIC, MSSA clinical strain; type: cell-based; settings: Staphylococcus aureus
Description: (§3) The compounds were evaluated for their in vitro anti-bacterial activity against Gram-positive bacteria: S. aureus (ATCC 25923), MRSA, methicillin-sensitive S. aureus (MSSA), E. faecalis, vancomycin-resistant E. faecium (VREF), and Gram-negative bacteria: E. coli (ATCC 25925), P. aeruginosa (ATCC 27853), A. baumannii (ATCC 19606) and ESBL-producing K. pneumoniae (ATCC 27736). Standard broth microdilution method as recommended in guidelines of Clinical and Laboratory Standards Institute[61] ^, [65] ^, [66] was applied and the minimum inhibitory concentration (MIC) of compounds was tested. In short, testing was performed in U-bottomed 96-well sterile plastic microdilution trays (Falcon 3077, Becton Dickinson Labware, Franklin Lakes, NJ) in cation (Ca^2+ and Mg^2+) adjusted Mueller–Hinton broth medium (Becton Dickinson and Co., Cockeysville, MD). All testings were performed in triplicate.

[3] = test system: polyA-polyU (RNA, polymer) A/U; experiment: UV-Vis titration, Scatchard; settings: PBS, I = 0.05 M (Table 1 says I = 0.015 M), cations not specified, I = 0.015 M (Methods: 0.05 M), pH 7, per base
[4] = test system: polyA-polyU; experiment: UV–Vis titration with polyA-polyU (Scatchard); type: binding; settings: PBS, pH 7; for Hypochromic effect H/%, polyA-polyU: UV–Vis titration, calculated by Scatchard equation; for log Ks, polyA-polyU: binding constant, Scatchard
Description: (§4) Polynucleotides were purchased as follows: polyG–polyC, polyA–polyU (Sigma-Aldrich, St. Louis, MO), calf thymus ctDNA (Aldrich). Polynucleotides were dissolved in PBS buffer, I = 0.05 mol dm^−3, pH 7.0. The calf thymus ctDNA was additionally sonicated and filtered through a […] filter. The polynucleotide concentration was spectroscopically determined as the concentration of nucleobases.
(§5) All UV–Vis absorbance measurements were conducted on a Perkin Elmer Lambda 25 spectrophotometer (Perkin Elmer, Waltham, MA). A quartz cell with a 1 cm path length was used for all absorbance studies. Compound stock solutions were 1 mM. The DNA/RNA at increasing ratios was then titrated into the compound buffer solution (1.48 × 10^−5 mol dm^−3) and the corresponding absorption spectra were recorded under the same conditions. All data were graphed and analysed using Origin software version 9.0 (OriginLab Corporation, Northampton, MA). The stability constants (Ks) and [bound compound]/[polynucleotide phosphate] ratios (n) were calculated according to the Scatchard Equation[63] ^, [64]. Values for Ks and n given in Table 1 all have satisfying correlation coefficients (0.99).
(§6) The binding constants logKs and the density of the binding sites n were calculated using Scatchard plot analysis. In addition, the binding constants Ks for compounds 8b and 8e were calculated only for titration data taken at the r ≥ 0.1, because below that ratio changes in absorption maxima were too small for accurate calculation (ΔA ≤ 0.04) (Table 1). The binding constants Ks and ratios n obtained by processing UV–Vis titration data using the Scatchard equation are summarised in Table 1.

[5] = test system: E. faecalis ATCC 29212; experiment: Broth microdilution MIC, E. faecalis ATCC 29212; type: cell-based; settings: Enterococcus faecalis, ATCC29212; Table S2
Description: as §3
(§7) The in vitro anti-bacterial activity of 5-amidinobenzimidazoles 7a–7e, 8a–8e, and 9a–9e was tested against Gram-positive bacteria including S. aureus (ATCC 25923), Enterococcus faecalis (ATCC 29212), and Gram-negative bacteria including E. coli (ATCC 25925), K. pneumoniae (ATCC 700803), P. aeruginosa (ATCC 27853), and Acinetobacter baumannii (ATCC 19606).

[6] = test system: A. baumannii ATCC 19606; experiment: Broth microdilution MIC, A. baumannii ATCC 19606; type: cell-based; settings: Acinetobacter baumannii, ATCC19606; Table S2
Description: as §3, §7

[7] = test system: K. pneumonia ATCC 700803; experiment: Broth microdilution MIC, K. pneumoniae ATCC 700803; type: cell-based; settings: Klebsiella pneumoniae, ATCC700803; Table S2
Description: as §3, §7

[8] = test system: E. coli ATCC 25925; experiment: Broth microdilution MIC, E. coli ATCC 25925; type: cell-based; settings: Escherichia coli, ATCC25925; Table S2
Description: as §3, §7

[9] = test system: polyG-polyC (polyC-polyG) (RNA, polymer) G/C; experiment: UV-Vis titration, Scatchard; settings: PBS; for log Ks: I = 0.05 M (Table 1 says I = 0.015 M), cations not specified, I = 0.015 M (Methods: 0.05 M), pH 7, per base
[10] = test system: calf thymus ctDNA; experiment: UV–Vis titration with ctDNA (Scatchard); type: binding; settings: PBS, pH 7; for Hypochromic effect H/%, ctDNA: UV–Vis titration, calculated by Scatchard equation; for log Ks, ctDNA: binding constant, Scatchard
Description: as §4, §5, §6

[11] = test system: polyA-polyU (RNA, polymer) A/U; experiment: UV melting at 260 nm; settings: PBS, I = 0.05 M, cations not specified, pH 7, r = 0.3 [compound]/[polynucleotide]
[12] = test system: bloodstream form T. brucei (strain 221); experiment: Anti-trypanosomal screening, resazurin; type: cell-based; settings: Trypanosoma brucei, mean of triplicate ± SEM
Description: Bloodstream form T. brucei (strain 221) were cultured in modified Iscove’s medium, as outlined[67] and trypanocidal assays were performed using 96-well microtitre plates. […] Resazurin was added after 48 h, the plates incubated for a further 16 h, and then read in a Spectramax plate reader (Molecular Devices Corporation, San Jose, CA). The data were analysed using GraphPad Prism (GraphPad, La Jolla, CA). Each drug concentration was tested in triplicate.

[13] = test system: E. faecium VRE; experiment: Broth microdilution MIC, VRE clinical strain; type: cell-based; settings: Enterococcus faecium
Description: as §3

[14] = test system: S. aureus MRSA; experiment: Broth microdilution MIC, MRSA clinical strain; type: cell-based; settings: Staphylococcus aureus, antibiotic-resistant clinical strain
Description: as §3

[15] = test system: ctDNA; experiment: Thermal melting (ΔTm) of ctDNA; type: binding, calf; settings: PBS, pH 7; for ΔTm, ctDNA, r = 0.3: r = [compound]/[polynucleotide] 0.3, error ±0.5 °C
Description: as §1, §2

[16] = test system: S. aureus ATCC 25923; experiment: Broth microdilution MIC, S. aureus ATCC 25923; type: cell-based; settings: Staphylococcus aureus, ATCC25923; Table S2
Description: as §3, §7

[17] = test system: P. aeruginosa ATCC 27853; experiment: Broth microdilution MIC, P. aeruginosa ATCC 27853; type: cell-based; settings: Pseudomonas aeruginosa, ATCC27853; Table S2
Description: as §3, §7

[18] = test system: polyC-polyG; experiment: UV–Vis titration with polyC-polyG (Scatchard); type: binding; settings: PBS, pH 7; for Hypochromic effect H/%, polyC-polyG: UV–Vis titration, calculated by Scatchard equation; for log Ks, polyC-polyG: binding constant, Scatchard
Description: as §4, §5, §6

[19] = r = 0.3, first melting midpoint

SMILES	ΔTm, polyA-polyU, r = 0.1 [1] [°C]	ΔTm, polyA-polyU, r = 0.3 [1, 19] [°C]	MIC [2] [µg/mL]	log Ks [3]	Hypochromic effect H/%, polyA-polyU [4] [%]	log Ks, polyA-polyU [4]	MIC [5] [µg/mL]	MIC [6] [µg/mL]	MIC [7] [µg/mL]	MIC [8] [µg/mL]	Hypochromic effect H/%, ctDNA [10] [%]	log Ks, ctDNA [10]	IC50 [12] [µM]	MIC [13] [µg/mL]	MIC [14] [µg/mL]	melting point [°C]	ΔTm, ctDNA, r = 0.5 [15] [°C]	ΔTm, ctDNA, r = 0.7 [15] [°C]	ΔTm, ctDNA, r = 0.3 [15] [°C]	MIC [16] [µg/mL]	also measured
Cl.Cl.N=C(N)c1ccc2[nH]c(-c3ccc(OCc4cn(-c5ccccc5Cl)nn4)cc3)nc2c1 [Compound 7c, 2–(4-((1–(2-Chlorophenyl)-1H-1,2,3-triazol-4-yl)methoxy)phenyl)-1H-benz[d]imidazole-5-carboximidamide dihydrochloride]	0.20	2.72	32	5.21	38.9	5.21	64	> 256	> 256	256	36.3	6.24	> 15	256	16	176 to 177	3.20	3.77	2.35	64	binding ([9]; pH 7, changes too small for accurate calculation, compound 14.8 µM): weak; ΔTm ([11]; error ±0.5, per base): 2.72 °C; MIC [17]: > 256 µg/mL
CC(C)NC(=N)c1ccc2[nH]c(-c3ccc(OCc4cn(-c5ccccc5Cl)nn4)cc3)nc2c1.Cl.Cl [Compound 8c, N-isopropyl-2–(4-((1–(2-chlorophenyl)-1H-1,2,3-triazol-4-yl)methoxy)phenyl)-1H-benz[d]imidazole-5-carboximidamide dihydrochloride]	0.76	0.58	16	6.00	50.4	6.00	64	> 256	> 256	256	33.8	5.64	> 15	32	8	210 to 213	3.89	4.39	3.40	32	ΔTm, polyA-polyU, r = 0.5 ([1]; r = 0.5, first melting midpoint): 1.12 °C; Hypochromic effect H/%, polyC-polyG [18]: 5.31%; log Ks, polyC-polyG [18]: 6.43; log Ks [9]: 6.43; MIC [17]: > 256 µg/mL
Cl.Cl.Clc1ccccc1-n1cc(COc2ccc(-c3nc4cc(C5=NCCN5)ccc4[nH]3)cc2)nn1 [Compound 9c, 5–(4,5-Dihydro-1H-imidazol-2-yl)-2–(4-((1–(2-chlorophenyl)-1H-1,2,3-triazol-4-yl)methoxy)phenyl)-1H-benz[d]imidazole dihydrochloride]	2.85	4.27	128	5.38	29.3	5.38	32	> 256	> 256	256	11.7	6.43	> 15	64	8	194 to 196	3.31	3.80	3.55	128	ΔTm, polyA-polyU, r = 0.3, second melting midpoint ([1]; r = 0.3, footnote c: biphasic melting curve): 13.99 °C; Hypochromic effect H/%, polyC-polyG [18]: 5.34%; log Ks, polyC-polyG [18]: 6.43; log Ks [9]: 6.43; ΔTm ([11]; error ±0.5, biphasic, second midpoint 13.99, per base): 4.27 °C; MIC [17]: > 256 µg/mL
